Patent publication US20250195536A1, “BICYCLOOCTANE KRAS INHIBITORS” (Incyte Corporation, priority 2023, published 2025)

What was measured:
KRAS G12V = KRAS G12V (Homo sapiens, UniProt P01116, G12V); experiment: GDP-GTP exchange assay (KRAS G12V); type: biochemical; conditions: bodipy-GDP/GppNHp exchange with SOS1; 3 h incubation after GppNHp-SOS1;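 note: one dagger IC50 up to 100 nM and two daggers above 100 nM up to 1 μM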
Summary of the method: (§1)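 Bodipy-GDP-loaded KRAS (2.5 nM final) was pre-incubated 4 h at r.t. with inhibitor in Hepes pH 7.5 buffer with MgCl2, then exchange started with GppNHp (500 μM) and SOS1 (150 nM) final. Fluorescence (ex 485/em 520 nm) read after 2 h for G12D, 3 h for G12V; IC50 from four-parameter logistic fit.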

[1] = Caco2 assay (permeability, Papp A-B); type: in vitro ADME; conditions: human, Caco-2, absorptive direction (A-B), 50 μM test compound, 4% BSA in receiver
Summary of the method: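 Caco-2 monolayers, 22-25 days on Transwells, TEER 300 Ω·cm^2, dosed apically with 50 μM compound in HBSS; basolateral HBSS with 4% BSA. 120 min at 37 °C, samples quantified by LCMS; Papp (A-B) from receiver-side cumulative flux slope, donor volume, surface area and initial donor amount.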

KRAS G12D = KRAS G12D (Homo sapiens, UniProt P01116, G12D); experiment: GDP-GTP exchange assay (KRAS G12D); type: biochemical; conditions: bodipy-GDP/GppNHp exchange with SOS1; 4 h pre-incubation, 2 h reaction;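 note: one dagger IC50 up to 100 nM and two daggers above 100 nM up to 1 μM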
Summary of the method: as §1

Chain of KRAS G12V (P01116 1-188 isoform P01116-2 G12V): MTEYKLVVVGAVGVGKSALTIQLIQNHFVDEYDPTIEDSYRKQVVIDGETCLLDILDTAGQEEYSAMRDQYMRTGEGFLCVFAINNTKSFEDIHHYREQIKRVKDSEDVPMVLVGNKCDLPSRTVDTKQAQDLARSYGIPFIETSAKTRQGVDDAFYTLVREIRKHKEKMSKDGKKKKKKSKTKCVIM
Chain of KRAS G12D (P01116 1-188 isoform P01116-2 G12D): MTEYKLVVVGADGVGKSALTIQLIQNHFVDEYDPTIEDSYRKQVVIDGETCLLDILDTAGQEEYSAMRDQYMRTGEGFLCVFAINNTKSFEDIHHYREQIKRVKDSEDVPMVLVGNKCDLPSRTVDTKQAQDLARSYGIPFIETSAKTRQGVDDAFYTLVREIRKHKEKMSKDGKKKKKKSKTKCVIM

| Compound | G12V_exchange (KRAS_G12V exchange assay IC50) (KRAS G12V) | Papp A→B at 120 min, 50 μM [1] [×10⁻⁶ cm/s] | G12D_exchange (KRAS_G12D exchange assay IC50) (KRAS G12D) |
| --- | --- | --- | --- |
| Cc1nc2c(F)c(-c3cccc(Cl)c3Cl)c(CCC#N)cc2c2c1cc([C@H]1[C@H]3C[C@H](CN(c4cccc(OC(F)F)n4)C3)N1C(=O)C1CC1)n2[C@H]1[C@H]2CN[C@@H]1C2 (atropisomer, axis not shown; (Ra)) [Example 86, 3-((Ra)-1-((1R,4R,5S)-2-azabicyclo[2.1.1]hexan-5-yl)-2-((1S,5R,7R)-6-(cyclopropanecarbonyl)-3-(6-(difluoromethoxy)pyridin-2-yl)-3,6-diazabicyclo[3.2.1]octan-7-yl)-7-(2,3-dichlorophenyl)-6-fluoro-4-methyl-1H-pyrrolo[3,2-c]quinolin-8-yl)propanenitrile] | † | ≤ 0.5 | † |
| Cc1nc2c(F)c(-c3cccc(Cl)c3Cl)c(CCC#N)cc2c2c1cc([C@H]1[C@H]3C[C@H](CN(c4nccc(C(F)F)n4)C3)N1C(=O)C1CC1)n2[C@H]1[C@H]2CN[C@@H]1C2 (atropisomer, axis not shown; (Ra)) [Example 87, 3-((Ra)-1-((1R,4R,5S)-2-azabicyclo[2.1.1]hexan-5-yl)-2-((1S,5R,7R)-6-(cyclopropanecarbonyl)-3-(4-(difluoromethyl)pyrimidin-2-yl)-3,6-diazabicyclo[3.2.1]octan-7-yl)-7-(2,3-dichlorophenyl)-6-fluoro-4-methyl-1H-pyrrolo[3,2-c]quinolin-8-yl)propanenitrile] | † | ≤ 0.5 | † |
| Cc1nc2c(F)c(-c3cccc(Cl)c3Cl)c(CCC#N)cc2c2c1cc([C@H]1[C@H]3C[C@H](CN(c4cccc(C(F)F)n4)C3)N1C(=O)C1CC1)n2[C@H]1[C@H]2CN[C@@H]1C2 (atropisomer, axis not shown; (Ra)) [Example 88, 3-((Ra)-1-((1R,4R,5S)-2-azabicyclo[2.1.1]hexan-5-yl)-2-((1S,5R,7R)-6-(cyclopropanecarbonyl)-3-(6-(difluoromethyl)pyridin-2-yl)-3,6-diazabicyclo[3.2.1]octan-7-yl)-7-(2,3-dichlorophenyl)-6-fluoro-4-methyl-1H-pyrrolo[3,2-c]quinolin-8-yl)propanenitrile] | † | ≤ 0.5 | † |
| Cc1nc2c(F)c(-c3cccc(Cl)c3Cl)c(CCC#N)cc2c2c1cc([C@H]1[C@H]3C[C@H](CN(c4cc(C(F)F)ccn4)C3)N1C(=O)C1CC1)n2[C@H]1[C@H]2CN[C@@H]1C2 (atropisomer, axis not shown; (Ra)) [Example 89, 3-((Ra)-1-((1R,4R,5S)-2-azabicyclo[2.1.1]hexan-5-yl)-2-((1S,5R,7R)-6-(cyclopropanecarbonyl)-3-(4-(difluoromethyl)pyridin-2-yl)-3,6-diazabicyclo[3.2.1]octan-7-yl)-7-(2,3-dichlorophenyl)-6-fluoro-4-methyl-1H-pyrrolo[3,2-c]quinolin-8-yl)propanenitrile] | † | ≤ 0.5 | † |
| Cc1csc(N2C[C@@H]3C[C@H](C2)N(C(=O)C2CC2)[C@H]3c2cc3c(C)nc4c(F)c(-c5cccc(Cl)c5Cl)c(CCC#N)cc4c3n2[C@H]2[C@H]3CN[C@@H]2C3)n1 (atropisomer, axis not shown; (Ra)) [Example 90, 3-((Ra)-1-((1R,4R,5S)-2-azabicyclo[2.1.1]hexan-5-yl)-2-((1S,5R,7R)-6-(cyclopropanecarbonyl)-3-(4-methylthiazol-2-yl)-3,6-diazabicyclo[3.2.1]octan-7-yl)-7-(2,3-dichlorophenyl)-6-fluoro-4-methyl-1H-pyrrolo[3,2-c]quinolin-8-yl)propanenitrile] | † | ≤ 0.5 | † |
